According to US5532218A, “3'-aziridino-anthracycline derivatives” (Farmitalia Carlo Erba S.R.L., priority 1993, dated 1996):
In brackets after ≈: the same amount, converted by molar mass.

How the values were obtained:
[1] = system: LoVo/DX (colon adenocarcinoma resistant to doxorubicin); test: cells; conditions: for resistance index, in words: LoVo/DX vs LoVo; for IC50 (concentration inhibiting 50% colony formation), LoVo/DX / R.I. = Resistance Index = (IC50 LoVo/DX)/(IC50 LoVo): colony assay, 4 h treatment; for cytotoxic activity against LoVo/DX, in words: both cell lines; for R.I. = Resistance Index = (IC50 LoVo/DX)/(IC50 LoVo): ratio LoVo/DX to LoVo
From the text: (§1) The citotoxic activity is reported as IC50, the concentration inhibiting 50% of colony formation, calculated on concentration response curves. Resistance index R.I. is the ratio between the IC50 on resistant cells and the IC50 on sensitive cells.

[2] = system: LoVo (colon adenocarcinoma); test: cells; conditions: for IC50 (concentration inhibiting 50% colony formation), LoVo: colony assay, 4 h treatment; for cytotoxic activity against LoVo, in words: both cell lines
From the text: as §1

[3] = system: P388 murine leukaemia resistant to doxorubicin (P388/DX); test: antitumor activity on P388/DX leukaemia in vivo; design: species or system murine (BD2F1 mice); conditions: for T/C (median survival time of treated mice/median survival time of controls × 100): P388/DX 10^5 cell/mouse i.v. in BD2F1 mice, compound i.v. one day after tumor transplantation, at optimal dose; for T/C (median survival time of treated mice/median survival time of controls × 100) / O.D. (Optimal Dose): in Tween 80 (10%); for O.D. (Optimal Dose): P388/DX in BD2F1 mice, i.v. one day after tumor transplantation; for in vivo activity compared with doxorubicin, in words: P388 murine leukaemia resistant to doxorubicin, BD2F1 mice
From the text: The compounds were suspended in Tween 80 (10%) and injected i.v. one day
after tumor transplantation.
^(2) Median survival time of treated mice/Median survival time of

Compound | resistance index, in words [1] | IC50 (concentration inhibiting 50% colony formation), LoVo/DX ([1]; LoVo/DX) [µg/mL] | cytotoxic activity against LoVo/DX, in words [1] | R.I. = Resistance Index = (IC50 LoVo/DX)/(IC50 LoVo) [1] | IC50 (concentration inhibiting 50% colony formation), LoVo ([2]; LoVo) [µg/mL] | cytotoxic activity against LoVo, in words [2] | T/C (median survival time of treated mice/median survival time of controls × 100) [3] [%] | O.D. (Optimal Dose) [3] [mg/kg] | in vivo activity compared with doxorubicin, in words [3] | IC50 ([1]; Homo sapiens, LoVo/DX, 4 h, read-out: IC50 (concentration inhibiting 50% colony formation), LoVo/DX) [µg/mL] | IC50 ([2]; Homo sapiens, LoVo, 4 h, read-out: IC50 (concentration inhibiting 50% colony formation), LoVo) [µg/mL]
3'-deamino-3'-[1-aziridinyl]-4'-O-methansulfonyl daunorubicin [Compound 1a] | low resistance index | 0.022 | high activity | 1.7 | 0.013 | high activity | 190 | 2.2 | strikingly higher activity than doxorubicin |  | 
3'-deamino-3'-[1-aziridinyl]-4'-O-methansulfonyl doxorubicin [Compound 2c] | low resistance index | 0.024 | high activity | 9.2 | 0.0027 | high activity | 195 | 1.8 | strikingly higher activity than doxorubicin |  | 
COc1cccc2c1C(=O)c1c(O)c3c(c(O)c1C2=O)C[C@@](O)(C(=O)CO)C[C@@H]3O[C@H]1C[C@H](N)[C@H](O)[C@H](C)O1 [doxorubicin, reference compound] |  |  |  |  |  |  |  | 16.9 |  |  | 
3'-deamino-3'-[1-aziridinyl]-4'-O-methansulfonyl-14-nicotinate-doxorubicin [Compound 2a] | low resistance index | 0.04 |  | 2.9 | 0.014 |  | 200 | 2.5 | strikingly higher activity than doxorubicin |  | 
CC(=O)[C@]1(O)Cc2c(O)c3c(c(O)c2[C@@H](O[C@H]2C[C@H](N4CC4)[C@H](OS(C)(=O)=O)[C@H](C)O2)C1)C(=O)c1ccccc1C3=O [Compound 1b, 4-demethoxy-3'-deamino-3'-[1-aziridinyl]-4'-O-methansulfonyl daunorubicin] | low resistance index |  | high activity | 0.9 |  | high activity | 240 | 3.8 | strikingly higher activity than doxorubicin | 0.026 (≈ 0.0432 µM) | 0.027 (≈ 0.0449 µM)
